Blank lines part the entries; values can stand above or below the compound they belong to.
Legend:
[1] = target: T1, human LPA1 (Homo sapiens, UniProt Q92633); assay: In vitro LPA1 calcium flux antagonist assay; format: cell-based; details: CHO-K1 cells overexpressing human LPA1 and G15a, LPA challenge at EC80, FLIPR calcium mobilization
T1 construct: expressed in transfected cells; host or cells: CHO-K1
Method: CHO-K1 cells overexpressing human LPA1 and G15a were seeded at a total volume of 20 μL (15000 cells/well) into Matrigel pre-coated 384-well plates (corning −3764) and incubated at 37° C. After overnight incubation, the cells were serum starved for 4 h. Assays were performed in dye loading buffer containing 1×Fluo-8 AM (AAT Bioquest, 21080) and 2.5 mM probenecid (Thermo Fisher, 36400) in HBSS/20 mM Hepes. After cell starvation, the medium was replaced with 20 μL of dye loading buffer and incubated at 37° C. for 30 min. Then 5 μL of 5× compound titrated in dye loading buffer was added to the cells and incubated for 30 min followed by LPA challenge at EC80. Calcium mobilization was measured on a FLIPR Tetra (MDS). For LPA EC80 determination, starved cells were incubated with 20 μL of dye loading buffer for 1 h, then 5 μL of 5×LPA titrated in dye loading buffer was added to the cells. Calcium signals induced by LPA was monitors on a FLIPR.
Percentage inhibition is calculated using the following formula: […]

[2] = Pharmacokinetics measurements in mice; format: in vivo; details: mouse; CD1 female mice, single oral 5 mg/kg, plasma, mean
Method: The PK properties of selected compounds were measured in CD1 female mice following single oral (5 mg/kg) administration.
Compounds 103 and 104 were prepared in a 1 mg/mL solution of 10% Solutol HS15 and 90%, saline for oral administrations at 5 mL/kg, respectively, and administered to 3 mice/3 groups. After dosing, blood collection was performed by dorsal metatarsal vein sampling at 0.25, 0.5, 1, 2, 4, 6, 8, 24 h, followed by centrifugation to obtain plasma. Samples were stored frozen at −80° C. prior to compound extraction and LC-MS/MS analysis. Pharmacokinetic parameters of compounds 103 and 104 in mice were calculated by standard noncompartmental modeling from the systemic plasma concentration-time profile.

[3] = Pharmacokinetics measurements in rats; format: in vivo; details: SD male rats, plasma; for Cl_obs / AUC(0-t) / Cmax / Tmax: mean; for bioavailability / AUC(0-t) / Cmax / Tmax: rat; for bioavailability: PO 5 mg/kg vs IV 1 mg/kg
Method: The PK properties of selected compounds were measured in SD Male rats following single oral (5 mg/kg) and Intravenous Administration (1 mg/kg).
Compounds 103 and 104 were prepared in a 1 mg/mL solution of 10% Solutol HS15 and 90% saline for oral administrations at 5 mL/kg and 0.2 mg/mL solution of 10% Solutol HS15 and 90% saline for intravenous administrations at 1 mL/kg, respectively, and administered to 3 rats per group. After dosing, blood collection was performed by Jugular vein sampling (by cannula) at 0.25, 0.5, 1, 2, 4, 6, 8, 24 h, and 0.083, 0.25, 0.5, 1, 2, 4, 8, 24 h, respectively, followed by centrifugation to obtain plasma. Samples were stored frozen at −80° C. prior to compound extraction and LC-MS/MS analysis. Pharmacokinetic parameters of compounds 103 and 104 in rats were calculated by standard noncompartmental modeling from the systemic plasma concentration-time profile.

T1 sequence (Q92633 whole entry): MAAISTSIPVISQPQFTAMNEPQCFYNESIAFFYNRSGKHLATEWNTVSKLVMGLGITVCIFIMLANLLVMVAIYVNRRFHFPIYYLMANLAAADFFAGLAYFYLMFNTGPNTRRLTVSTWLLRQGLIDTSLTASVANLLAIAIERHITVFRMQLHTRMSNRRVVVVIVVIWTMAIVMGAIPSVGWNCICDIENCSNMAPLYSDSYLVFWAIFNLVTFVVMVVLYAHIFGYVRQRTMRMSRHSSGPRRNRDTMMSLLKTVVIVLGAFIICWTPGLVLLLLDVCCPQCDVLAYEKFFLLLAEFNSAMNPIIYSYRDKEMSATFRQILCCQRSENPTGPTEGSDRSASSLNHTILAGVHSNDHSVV

Structure (SMILES): CNc1ccc(C(=O)O)n2nc(C[C@H](OC3CCCC3)[C@H](O)c3cc(OC)c(C)c(OC)c3)cc12 [Compound 108, 2-((2S,3R)-2-(cyclopentyloxy)-3-(3,5-dimethoxy-4-methylphenyl)-3-hydroxypropyl)-4-(methylamino)pyrazolo[1,5-a]pyridine-7-carboxylic acid]
IC50 [1]: 10 to 100 nM

Structure (SMILES): CCOc1cc(C(=O)O)c2nc(C[C@H](OC3CCCC3)[C@H](O)c3ccc(C(F)F)c(OC)c3)sc2c1 [Compound 112]
IC50 [1]: 10 to 100 nM

Structure (SMILES): CCOc1ccc(C(=O)O)c2nc(C[C@H](OC3CCCC3)[C@H](O)c3cc(OC)c(C)c(OC)c3)sc12 [Compound 109]
IC50 [1]: < 10 nM

Structure (SMILES): COCc1cc(C(=O)O)c2nc(C[C@H](OC3CCCC3)[C@H](O)c3cc(OC)c(C)c(OC)c3)sc2c1 [Compound 104, 2-((2S,3R)-2-(cyclopentyloxy)-3-(3,5-dimethoxy-4-methylphenyl)-3-hydroxypropyl)-6-(methoxymethyl)benzo[d]thiazole-4-carboxylic acid]
IC50 [1]: < 10 nM
AUC(0-t) [2]: 6950 ng·h/mL
Cmax [2]: 3840 ng/mL
Tmax [2]: 15 min
Cl_obs ([3]; IV 1 mg/kg): 8.8 mL/min/kg
bioavailability [3]: 30.3%
AUC(0-t) ([3]; IV 1 mg/kg): 1900 ng·h/mL
AUC(0-t) ([3]; PO 5 mg/kg): 2890 ng·h/mL
Cmax ([3]; PO 5 mg/kg): 1520 ng/mL
Tmax ([3]; PO 5 mg/kg): 15 min

Structure (SMILES): CCCc1sc(C[C@H](OC2CCCC2)[C@H](O)c2cc(OC)c(C(C)=O)c(OC)c2)nc1C(C)C(=O)O (some centres unmarked) [Compound 114]
IC50 [1]: 10 to 100 nM

Structure (SMILES): CCOc1ccc(C(=O)O)n2nc(C[C@H](OC3CCCC3)[C@H](O)c3cc(OC)c(C)c(OC)c3)cc12 [Compound 113]
IC50 [1]: 10 to 100 nM

Structure (SMILES): COc1cc([C@@H](O)[C@H](Cc2cc3c(N(C)C)ccc(C(=O)O)n3n2)OC2CCCC2)cc(OC)c1C [Compound 110]
IC50 [1]: > 100 nM

Structure (SMILES): CNc1cc(C(=O)O)c2nc(C[C@H](OC3CCCC3)[C@H](O)c3cc(OC)c(C)c(OC)c3)sc2c1 [Compound 105, 2-((2S,3R)-2-(cyclopentyloxy)-3-(3,5-dimethoxy-4-methylphenyl)-3-hydroxypropyl)-6-(methylamino)benzo[d]thiazole-4-carboxylic acid]
IC50 [1]: < 10 nM

Structure (SMILES): COc1cc([C@@H](O)[C@H](Cc2nc3c(C(=O)O)cc(CO)cc3s2)OC2CCCC2)cc(OC)c1C [Compound 103, 2-((2S,3R)-2-(cyclopentyloxy)-3-(3,5-dimethoxy-4-methylphenyl)-3-hydroxypropyl)-6-(hydroxymethyl)benzo[d]thiazole-4-carboxylic acid]
IC50 [1]: 10 to 100 nM
AUC(0-t) [2]: 1640 ng·h/mL
Cmax [2]: 463 ng/mL
Tmax [2]: 30 min
Cl_obs ([3]; IV 1 mg/kg): 12.9 mL/min/kg
bioavailability [3]: 27.3%
AUC(0-t) ([3]; IV 1 mg/kg): 1330 ng·h/mL
AUC(0-t) ([3]; PO 5 mg/kg): 1790 ng·h/mL
Cmax ([3]; PO 5 mg/kg): 1490 ng/mL
Tmax ([3]; PO 5 mg/kg): 15 min

Structure (SMILES): CCOc1cc(C(=O)O)c2nc(C[C@H](OC3CCCC3)[C@H](O)c3cc(OC)cc(OC)c3)sc2c1 [Compound 111]
IC50 [1]: 10 to 100 nM

Results, then the compound that gave them:

IC50 [1]: < 10 nM
Structure (SMILES): CCOc1cc(C(=O)O)c2nc(C[C@H](OC3CCCC3)[C@H](O)c3ccc(C)c(OC)c3)sc2c1 [Compound 101, 2-((2S,3R)-2-(cyclopentyloxy)-3-hydroxy-3-(3-methoxy-4-methylphenyl)propyl)-6-ethoxybenzo[d]thiazole-4-carboxylic acid]

IC50 [1]: < 10 nM
Structure (SMILES): COc1cc([C@@H](O)[C@H](Cc2nc3c(C(=O)O)cc(N(C)C)cc3s2)OC2CCCC2)cc(OC)c1C [Compound 106, 2-((2S,3R)-2-(cyclopentyloxy)-3-(3,5-dimethoxy-4-methylphenyl)-3-hydroxypropyl)-6-(dimethylamino)benzo[d]thiazole-4-carboxylic acid]

IC50 [1]: < 10 nM
Structure (SMILES): COc1cc([C@@H](O)[C@H](Cc2nc3c(C(=O)O)ccc(OC)c3s2)OC2CCCC2)cc(OC)c1C [Compound 107, 2-((2S,3R)-2-(cyclopentyloxy)-3-(3,5-dimethoxy-4-methylphenyl)-3-hydroxypropyl)-7-methoxybenzo[d]thiazole-4-carboxylic acid]

IC50 [1]: < 10 nM
Structure (SMILES): COc1cc(C(=O)O)c2nc(C[C@H](OC3CCCC3)[C@H](O)c3ccc(C(F)F)c(OC)c3)sc2c1 [Compound 102, 2-((2S,3R)-2-(cyclopentyloxy)-3-(4-(difluoromethyl)-3-methoxyphenyl)-3-hydroxypropyl)-6-methoxybenzo[d]thiazole-4-carboxylic acid]

From US20240400562A1, “COMPOUNDS AND COMPOSITIONS FOR TREATING CONDITIONS ASSOCIATED WITH LPA RECEPTOR ACTIVITY” (LHOTSE, BIO, INC., priority 2021, published 2024)
